In the supplement of paper PMC10307832:

Experiments:
Experiment in all cases: relative viability (nuclei count vs DMSO), 5 days (fraction); higher = more cells survive
Adavosertib + Foretinib = compound: C=CCn1c(=O)c2cnc(Nc3ccc(N4CCN(C)CC4)cc3)nc2n1-c1cccc(C(C)(C)O)n1 [Adavosertib] + COc1cc2c(Oc3ccc(NC(=O)C4(C(=O)Nc5ccc(F)cc5)CC4)cc3F)ccnc2cc1OCCCN1CCOCC1 [Foretinib] (partner 0.25 µM)
In short: (§1)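 Cells from lung cancer lines were seeded into 1536-well plates and, one day later, dosed by pin tool. Treatments were either a single drug or a fixed dose of an anchor drug with five library-drug doses (not always all listed) in √10 steps. After 5 days, nuclei were stained in a one-step fixation (final 0.05% Triton X-100, 1% formaldehyde, 1 ug/ml Hoechst) and counted on 4× images, and relative viability is the treated-to-vehicle nuclei ratio, as the median of duplicate plates.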

Nelarabine + Pictilisib = compound: COc1nc(N)nc2c1ncn2[C@@H]1O[C@H](CO)[C@@H](O)[C@@H]1O [Nelarabine] + CS(=O)(=O)N1CCN(Cc2cc3nc(-c4cccc5[nH]ncc45)nc(N4CCOCC4)c3s2)CC1 [Pictilisib] (partner 1 µM)
In short: as §1

Adavosertib + Crizotinib = compound: C=CCn1c(=O)c2cnc(Nc3ccc(N4CCN(C)CC4)cc3)nc2n1-c1cccc(C(C)(C)O)n1 [Adavosertib] + C[C@@H](Oc1cc(-c2cnn(C3CCNCC3)c2)cnc1N)c1c(Cl)ccc(F)c1Cl [Crizotinib] (partner 1 µM)
In short: as §1

Nelarabine + Trametinib = compound: COc1nc(N)nc2c1ncn2[C@@H]1O[C@H](CO)[C@@H](O)[C@@H]1O [Nelarabine] + CC(=O)Nc1cccc(-n2c(=O)n(C3CC3)c(=O)c3c(Nc4ccc(I)cc4F)n(C)c(=O)c(C)c32)c1 [Trametinib] (partner 0.02 µM)
In short: as §1

Row | Cell Line | relative viability (Adavosertib + Foretinib; first compound 0.01 µM) | relative viability (Adavosertib + Foretinib; first compound 0.03162 µM) | relative viability (Adavosertib + Foretinib; first compound 0.1 µM) | relative viability (Adavosertib + Foretinib; first compound 0.3162 µM) | relative viability (Nelarabine + Pictilisib; first compound 0.01 µM) | relative viability (Nelarabine + Pictilisib; first compound 0.03162 µM) | relative viability (Nelarabine + Pictilisib; first compound 0.1 µM) | relative viability (Nelarabine + Pictilisib; first compound 0.3162 µM) | relative viability (Nelarabine + Pictilisib; first compound 1 µM) | relative viability (Adavosertib + Crizotinib; first compound 0.01 µM) | relative viability (Adavosertib + Crizotinib; first compound 0.03162 µM) | relative viability (Adavosertib + Crizotinib; first compound 0.1 µM) | relative viability (Adavosertib + Crizotinib; first compound 0.3162 µM) | relative viability (Nelarabine + Trametinib; first compound 0.01 µM) | relative viability (Nelarabine + Trametinib; first compound 0.03162 µM) | relative viability (Nelarabine + Trametinib; first compound 0.1 µM) | relative viability (Nelarabine + Trametinib; first compound 0.3162 µM) | relative viability (Nelarabine + Trametinib; first compound 1 µM)
1 | NCI-H1666 | 0.93 | 0.953 | 0.961 | 0.887 | 0.524 | 0.419 | 0.371 | 0.409 | 0.551 | 0.926 | 0.963 | 1.01 | 1.05 | 0.82 | 1 | 0.738 | 0.839 | 0.859
2 | NCI-H1650 | 1.12 | 1.15 | 1.31 | 0.797 | 0.742 | 0.666 | 0.476 | 0.559 | 0.591 | 0.931 | 1.02 | 1.04 | 1.17 | 0.513 | 0.694 | 0.462 | 0.818 | 0.562
3 | NCI-H441 | 1.04 | 0.964 | 1.09 | 0.916 | 0.488 | 0.376 | 0.543 | 0.461 | 0.582 | 0.751 | 0.637 | 0.838 | 0.568 | 0.432 | 0.482 | 0.469 | 0.446 | 0.466
4 | LC-2-ad | 0.823 | 0.995 | 0.958 | 0.889 | 0.624 | 0.467 | 0.428 | 0.482 | 0.468 | 0.499 | 0.442 | 0.547 | 0.528 | 1.09 | 1.01 | 0.922 | 0.993 | 0.899
5 | LCLC-103H | 0.922 | 0.794 | 0.871 | 0.517 | 0.756 | 0.811 | 0.62 | 0.671 | 0.652 | 1.07 | 0.99 | 1.06 | 1.07 | 0.72 | 0.68 | 0.751 | 0.758 | 0.69
6 | NCI-H727 | 0.689 | 1.07 | 0.917 | 0.831 | 0.581 | 0.476 | 0.348 | 0.397 | 0.302 | 0.804 | 0.994 | 0.737 | 0.871 | 0.377 | 0.43 | 0.358 | 0.35 | 0.321
7 | HCC-827 | 1.07 | 1.09 | 1.09 | 0.929 | 0.956 | 0.863 | 0.931 | 0.814 | 0.76 | 0.895 | 0.943 | 1.03 | 0.929 | 0.537 | 0.559 | 0.521 | 0.454 | 0.478
8 | NCI-H2023 | 0.85 | 0.933 | 0.916 | 0.568 | 0.309 | 0.316 | 0.176 | 0.216 | 0.252 | 0.717 | 0.681 | 0.573 | 0.551 | 0.721 | 0.61 | 0.46 | 0.632 | 0.505
